{"source": "patent US5567736A", "about": "“Use of a choline salt to inhibit fatty liver in patients receiving total parenteral nutrition” (priority 1994, dated 1996)", "remark": "listed apart in the source", "key": {"[1]": {"source_text": "(§1) Four subjects who were known to have low plasma free choline levels and hepatic steatosis were studied. The subjects included 3 females and 1 person. Two subjects had short bowel syndrome from Crohn's disease, one had radiation enteritis and the fourth had pseudo-obstruction. The subjects had received home TPN for 9.7±4.7 years. Their TPN consisted of 2-3L of 15-25% dextrose solution with 3.0-3.5% amino acids, electrolytes, trace elements and vitamins. All subjects received 19.5±3.7 kcal-kg day actual body weight (range 16-24 kcal/kg/d). This level of support varied between subjects depending upon individual variation in oral intake and intestinal absorption.\n(§2) Plasma-free choline level, serum SGOT, SGPT and total cholesterol levels were measured at each visit. Plasma free choline was measured by gas chromatography and mass spectrophotometry (See Jenden DJ, Roch M, Booth RA. Simultaneous measurements of endogenous and deuterium-labeled tracer variants of choline and acetylcholine in subpicomole quantities by gas chromatography spectrometry. Anal Biochem. 55:438-48, 1973; and Freeman JJ, Choi RL, Jenden DJ. Plasma choline: its turnover and exchange with brain choline. J. Neurochem. 24:729-34, 1975.)"}, "[2]": {"details": "Subject #4, pharmacokinetic studies preceding the 6 week choline infusion"}, "[3]": {"tested_on": "hepatic transaminase levels", "details": "during the study, except Subject #1; three of four subjects had normal AST and ALT at baseline", "experimental": "as §2\n(§3) The hepatic transaminase levels and cholesterol were determined using standard automated techniques. Plasma phospholipid bound choline was measured at baseline, at the end of the 6 week nightly choline infusion and 4 weeks later following extraction as described by Folch et al (Folch J, Lees M, Stanley GHS. A simple method for the isolation and purification of total lipids from animal tissue. J. Bio Chem. 226:497-509, 1957.) and hydrolysis as described by Jope and Jenden (Jope RS, Jenden DJ. Choline and phospholipid metabolism and the synthesis of acetylcholine in rat brain. J. Neurosci Res. 4:69-82, 1979.). All blood samples were obtained on the subjects following an overnight fast and 3-5 hours following completion of the TPN."}, "total serum cholesterol": {"tested_on": "total serum cholesterol", "details": "during the study", "experimental": "as §2, §3"}, "[4]": {"tested_on": "hepatic steatosis (liver)", "source_text": "as §1\nIntravenous lipid (Intralipid 20%, Clintec, Deerfield, Ill.) supplied 42.5%±25.7% of daily intravenous caloric intake. […] The TPN solution for each subject included 2.3-5 g of methionine on a daily basis depending upon the total amino acid concentration. The vitamin preparation included 5 μg vitamin B12 and 400 μg folate on a daily basis. All subjects received their TPN nightly as one dose over a period of 10-12 hours.\nas §2\nComputed tomography (CT) was used as a non-invasive method for quantifying hepatic fat density. Limited non-contrast CT scanning of the liver and spleen was performed using a GE 9800 CT scanner (Milwaukee, Wis.). Multiple contiguous 1-cm axial sections at 1-cm intervals were obtained. Attenuation values for regions of interest in the liver and spleen were generated from multiple representative sections. An average (mean) CT number in Hounsfield units (HU) was then calculated for each organ. Liver density was determined using two currently acceptable methods: a) the average absolute liver CT number, and b) the liver-spleen differential obtained by subtracting the average spleen CT number from the average liver CT number (to correct for interscan variability).\nIn the normal state, the liver and spleen maintain a fairly constant relationship in terms of relative CT numbers on non-contrast scans. On the main scanner employed at our institution, normal liver density corresponds to approximately 45 HU in absolute terms, and normal liver attenuation values exceed those of the spleen by approximately 8 HU (i.e., a liver-spleen differential of approximately positive 8 HU). Fat has a distinctly lower attenuation than other tissues and thus a distinct appearance on the CT image, as well as a distinctly low CT number in HU. Hepatic density and hepatic steatosis are therefore inversely related. Fatty liver was defined as an absolute CT number </=45 HU, or a liver-spleen differential of </= positive 8.0 HU (with 0-to-positive 8 HU representing borderline fatty change and </=0 HU corresponding to marked fatty infiltration)."}, "[5]": {"details": "all subjects; baseline 5.2±2.1, normal 11.4+/-3.7 nmol/ml", "source_text": "as §1, with “females aged 45, 50 and 72 years” for “females”\nas §2\nThe hepatic transaminase levels and cholesterol were determined using standard automated techniques. […]"}, "[6]": {"details": "concentrations as high as 10 g/l"}, "[7]": {"details": "various TPN nutrient solutions, at least 30 days"}}, "note": "Several values for one entry are separate records, joined by “and”; a condition that tells them apart may be missing. Equal entries are not always repeated."}
{"smiles": "C[N+](C)(C)CCO.[Cl-]", "note": "[choline chloride]", "values": [{"measurement": "tolerability after dose increased back to 1 g/day", "setting": "[1]; Subject #4, from day 30 for remainder of study, 1 g/day", "value": "without complaints"}, {"measurement": "side effect requiring dose adjustment", "setting": "[1]; Subject #4, upon awakening at end of choline infusion, dose decreased from 2 g/day to 1 g/day, then 1 g every other day", "value": "mild nausea"}, {"measurement": "side effects or dose adjustment in other subjects", "setting": "[1]; subjects other than #4", "value": "No other subject experienced any side effects or required a dose adjustment"}, {"measurement": "plasma free choline level tolerated without any side effects", "setting": "[2]", "value": "≤ 230", "unit": "nmol/mL"}, {"measurement": "hepatic transaminase levels", "setting": "[3]", "value": "No significant decreases"}, {"measurement": "total serum cholesterol", "setting": "total serum cholesterol", "value": "No change"}, {"measurement": "Liver-spleen Hounsfield unit differential, 4 Wks post choline", "setting": "[4]; 4 weeks after choline discontinued, b48 Subject 1 (baseline -47.0), b50 Subject 2 (-0.7), b52 Subject 3 (0.3)", "value": "10.6 Hounsfield unit and 15.7 Hounsfield unit and 15.0 Hounsfield unit"}, {"measurement": "Liver-spleen Hounsfield unit differential, 10 weeks post choline supplementation", "setting": "[4]; Subject 4 (baseline -9.4), 10 weeks post choline supplementation", "value": -6.3, "unit": "Hounsfield unit"}, {"measurement": "liver-spleen CT number differential, normalisation", "setting": "[4]; concurrent scans, six weeks of choline", "value": "assumed a normal or near-normal relationship"}, {"measurement": "hepatic steatosis four weeks after choline was discontinued", "setting": "[4]; follow-up post-supplementation CT", "value": "had not yet returned to baseline"}, {"measurement": "improvement of CT number difference (liver-spleen subtraction method), average", "setting": "[4]; initial CT two weeks after choline started vs baseline, 4 subjects, p=0.002", "value": "20+/-16.5 HU"}, {"measurement": "hepatic steatosis ten weeks after choline supplemented TPN discontinued", "setting": "[4]; one subject (printed #3)", "value": "had recurred"}, {"measurement": "liver density ten weeks after choline supplemented TPN discontinued", "setting": "[4]; one subject (printed #3)", "value": "appeared identical to the baseline CT scan"}, {"measurement": "liver-spleen differential ten weeks after choline supplemented TPN discontinued", "setting": "[4]; one subject (printed #3)", "value": "returned to its original, pre-choline supplementation value"}, {"measurement": "hepatic steatosis during six weeks of choline supplementation", "setting": "[4]; six weeks of choline, all four subjects", "value": "completely resolved in all four subjects"}, {"measurement": "liver density at initial CT scan", "setting": "[4]; two weeks after choline supplementation initiated", "value": "marked increase in liver density"}, {"measurement": "hepatic steatosis at initial CT scan", "setting": "[4]; two weeks after choline supplementation initiated, all 4 subjects", "value": "decreased significantly in all 4 subjects"}, {"measurement": "CT number difference (liver-spleen subtraction method), mean after choline", "setting": "[4]; two weeks of choline, 4 subjects, baseline -14.2+/-22.3 HU, p=0.002", "value": "8.4 +/-10.3 HU"}, {"measurement": "plasma free choline level after one week of choline supplementation", "setting": "[5]", "value": "increased into the normal range"}, {"measurement": "effect on amino acid availability of the TPN solution", "setting": "[6]", "value": "does not affect"}, {"measurement": "effect on pH of the TPN solution", "setting": "[6]", "value": "does not affect"}, {"measurement": "stability in TPN solution", "setting": "[6]", "value": "at least 30 days"}, {"measurement": "stability in various TPN nutrient solutions", "setting": "various TPN nutrient solutions", "value": "at least 30 days"}, {"measurement": "effect on TPN solution amino acid concentrations", "setting": "[7]", "value": "no adverse affects"}, {"measurement": "effect on TPN solution pH", "setting": "[7]", "value": "no adverse affects"}, {"measurement": "effect on TPN solution turbidity", "setting": "[7]", "value": "no adverse affects"}]}
